Results taken from patent US11149037B2, “Pyrazole MAGL inhibitors” (H. Lundbeck A/S, priority 2017, dated 2021).

Experiments:
Type in all cases: biochemical
FAAH [1] = target: FAAH (Homo sapiens (Human), UniProt O00519); experiment: In vitro competitive activity-based protein profiling, human proteomes (prefrontal cortex or PC3 cell membrane fractions); details: 1 μM, human proteome; read-out: FAAH % inh. 1 μM (human)
In short: (§1)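 Activity of MAGL and FAAH was quantified from fluorescent gel band intensities. Beforehand, inhibitors at several concentrations competed against subsequent probe labelling (FP-Rh, JW912 or HT-01) in species-matched proteomes, each step 30 min at 37° C.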

MAGL [2] = target: MAGL (Homo sapiens (Human), UniProt Q99685); experiment: as above; details: human proteome; for inhibition at 10 µM: read-out: MAGL % inh. (human) @ 10 μM; for inhibition at 1 µM: read-out: MAGL % inh. 1 μM (human); for inhibition at 50 µM: read-out: MAGL % inh. (human) @ 50 μM
In short: as §1

FAAH [3] = target: FAAH (Mus musculus (Mouse), UniProt O08914); experiment: In vitro competitive activity-based protein profiling, mouse proteomes (brain membrane fraction or cell lysates); details: mouse proteome, read-out: FAAH % inh. 1 μM (mouse)
In short: as §1

MAGL [4] = target: MAGL (Mus musculus (Mouse), UniProt O35678); experiment: as above; details: mouse proteome, read-out: MAGL % inh. 1 μM (mouse)
In short: as §1

Chain of FAAH (Mus musculus (Mouse), UniProt O08914) (O08914 whole entry): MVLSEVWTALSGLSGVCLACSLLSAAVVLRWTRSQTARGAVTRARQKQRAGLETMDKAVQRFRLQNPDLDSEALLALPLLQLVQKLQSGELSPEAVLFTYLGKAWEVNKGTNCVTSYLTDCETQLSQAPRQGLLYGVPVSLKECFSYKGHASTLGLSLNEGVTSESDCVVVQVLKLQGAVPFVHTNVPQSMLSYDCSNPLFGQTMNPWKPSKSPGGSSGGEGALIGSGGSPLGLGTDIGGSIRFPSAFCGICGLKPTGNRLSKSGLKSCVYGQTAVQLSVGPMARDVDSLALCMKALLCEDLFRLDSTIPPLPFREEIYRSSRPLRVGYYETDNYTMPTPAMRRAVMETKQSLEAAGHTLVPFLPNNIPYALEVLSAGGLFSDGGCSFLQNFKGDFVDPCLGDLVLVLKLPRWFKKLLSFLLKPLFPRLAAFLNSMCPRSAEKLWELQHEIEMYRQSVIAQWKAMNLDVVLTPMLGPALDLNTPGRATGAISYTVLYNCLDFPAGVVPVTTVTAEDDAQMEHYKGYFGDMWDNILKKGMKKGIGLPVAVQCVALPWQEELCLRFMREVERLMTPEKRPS
Chain of FAAH (Homo sapiens (Human), UniProt O00519) (O00519 whole entry): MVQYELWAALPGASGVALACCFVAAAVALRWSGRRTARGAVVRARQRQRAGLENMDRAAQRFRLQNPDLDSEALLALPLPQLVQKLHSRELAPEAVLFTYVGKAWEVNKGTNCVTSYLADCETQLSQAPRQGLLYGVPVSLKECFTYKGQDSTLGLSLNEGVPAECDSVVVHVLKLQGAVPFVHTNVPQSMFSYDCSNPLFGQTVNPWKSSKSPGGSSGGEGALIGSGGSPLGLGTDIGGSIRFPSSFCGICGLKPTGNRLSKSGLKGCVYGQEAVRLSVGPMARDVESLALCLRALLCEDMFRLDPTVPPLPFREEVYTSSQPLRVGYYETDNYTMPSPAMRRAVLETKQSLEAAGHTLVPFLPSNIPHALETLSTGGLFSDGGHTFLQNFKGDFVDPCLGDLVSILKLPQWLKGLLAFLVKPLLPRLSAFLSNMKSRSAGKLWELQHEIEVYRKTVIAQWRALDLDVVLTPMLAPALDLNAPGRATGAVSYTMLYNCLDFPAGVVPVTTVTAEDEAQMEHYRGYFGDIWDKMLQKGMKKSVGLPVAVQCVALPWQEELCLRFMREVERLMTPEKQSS
Chain of MAGL (Mus musculus (Mouse), UniProt O35678) (O35678 whole entry): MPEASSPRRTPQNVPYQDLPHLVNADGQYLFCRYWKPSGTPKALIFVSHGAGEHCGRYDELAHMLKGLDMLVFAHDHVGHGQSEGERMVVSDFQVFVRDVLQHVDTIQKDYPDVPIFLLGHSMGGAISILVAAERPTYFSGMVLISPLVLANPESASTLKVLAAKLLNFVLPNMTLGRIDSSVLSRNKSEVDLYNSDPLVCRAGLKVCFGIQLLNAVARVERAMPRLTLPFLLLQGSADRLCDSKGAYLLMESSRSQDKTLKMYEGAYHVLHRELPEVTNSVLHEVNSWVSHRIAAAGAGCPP
Chain of MAGL (Homo sapiens (Human), UniProt Q99685) (Q99685 whole entry): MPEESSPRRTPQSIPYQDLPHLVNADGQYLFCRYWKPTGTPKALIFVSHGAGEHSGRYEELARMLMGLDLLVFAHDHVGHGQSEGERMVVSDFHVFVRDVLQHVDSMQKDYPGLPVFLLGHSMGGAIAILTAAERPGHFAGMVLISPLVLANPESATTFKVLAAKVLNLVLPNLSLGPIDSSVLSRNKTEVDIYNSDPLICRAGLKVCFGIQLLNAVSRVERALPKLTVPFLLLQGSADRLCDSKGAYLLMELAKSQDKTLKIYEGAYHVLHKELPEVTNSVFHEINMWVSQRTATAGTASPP

inhibition at 1 µM (FAAH [1]) | inhibition at 10 µM (MAGL [2]) | inhibition at 1 µM (FAAH [3]) | inhibition at 1 µM (MAGL [4]) | inhibition at 1 µM (MAGL [2]) | inhibition at 50 µM (MAGL [2]) | SMILES
0 to 25% | 25 to 50% | 0 to 25% | 0 to 25% |  |  | CS(=O)(=O)Nc1ccn(C(=O)N2CCC3(CCN(Cc4cc(Cl)ccc4C(F)(F)F)C3)CC2)n1 [Example 46, N-(1-(2-(5-Chloro-2-(trifluoromethyl)benzyl)-2,8-diazaspiro[4.5]decane-8-carbonyl)-1H-pyrazol-3-yl)methanesulfonamide]
0 to 25% |  | 0 to 25% | > 75% | > 75% |  | CC(=O)Nc1ccn(C(=O)N2CCN(Cc3ccc(C(N)=O)c(C(F)(F)F)c3)CC2)n1 [Example 123, 4-((4-(3-Acetamido-1H-pyrazole-1-carbonyl)piperazin-1-yl)methyl)-2-(trifluoromethyl)benzamide]
0 to 25% |  | 0 to 25% | > 75% | > 75% |  | CC(=O)Nc1ccn(C(=O)N2CCN(Cc3cccc(OC(F)(F)F)c3)CC2)n1 [Example 128, N-(1-(4-(3-(Trifluoromethoxy)benzyl)piperazine-1-carbonyl)-1H-pyrazol-3-yl)acetamide]
0 to 25% |  | 0 to 25% | > 75% | > 75% |  | CC(=O)Nc1ccn(C(=O)N2CCN(Cc3cc(Cl)cc(Cl)c3)CC2)n1 [Example 144, N-(1-(4-(3,5-Dichlorobenzyl)piperazine-1-carbonyl)-1H-pyrazol-3-yl)acetamide]
0 to 25% |  | 0 to 25% | 0 to 25% |  | 25 to 50% | CS(=O)(=O)Nc1ccn(C(=O)N2CCC3(CCN(Cc4ccc(N5CCCC5)cc4C(F)(F)F)C3)CC2)n1 [Example 48, N-(1-(2-(4-(Pyrrolidin-1-yl)-2-(trifluoromethyl)benzyl)-2,8-diazaspiro[4.5]decane-8-carbonyl)-1H-pyrazol-3-yl)methanesulfonamide]
0 to 25% |  | 0 to 25% | 0 to 25% |  | 25 to 50% | CS(=O)(=O)Nc1ccn(C(=O)N2CC3CN(Cc4ccc(N5CCCC5)cc4C(F)(F)F)CC3C2)n1 (stereo not shown) [Example 47, N-(1-(5-(4-(Pyrrolidin-1-yl)-2-(trifluoromethyl)benzyl)octahydropyrrolo[3,4-c]pyrrole-2-carbonyl)-1H-pyrazol-3-yl)methanesulfonamide]
0 to 25% | > 75% | 0 to 25% | 0 to 25% |  |  | C#Cc1ccc(CN2CCN(C(=O)n3ccc(NS(C)(=O)=O)n3)CC2)cc1 [Example 69, N-(1-(4-(4-Ethynylbenzyl)piperazine-1-carbonyl)-1H-pyrazol-3-yl)methanesulfonamide]
0 to 25% |  | 0 to 25% | > 75% | > 75% |  | CS(=O)(=O)Nc1ccn(C(=O)N2CCN(Cc3sc4ccccc4c3Cl)CC2)n1 [Example 70, N-(1-(4-((3-Chlorobenzo[b]thiophen-2-yl)methyl)piperazine-1-carbonyl)-1H-pyrazol-3-yl)methanesulfonamide]
0 to 25% | > 75% | 0 to 25% | 0 to 25% |  |  | CS(=O)(=O)Nc1ccn(C(=O)N2CCC3(CCCN3Cc3ccc(C(F)(F)F)cc3NCCCC(=O)O)CC2)n1 [Example 1, 4-((2-((8-(3-(methylsulfonamido)-1H-pyrazole-1-carbonyl)-1,8-diazaspiro[4.5]decan-1-yl)methyl)-5-(trifluoromethyl)phenyl)amino)butanoic acid]

SMILES | inhibition at 1 µM (FAAH [1]) | inhibition at 10 µM (MAGL [2]) | inhibition at 1 µM (FAAH [3]) | inhibition at 1 µM (MAGL [4]) | inhibition at 1 µM (MAGL [2]) | inhibition at 50 µM (MAGL [2])
CS(=O)(=O)Nc1ccn(C(=O)N2CCC(Oc3ccc(C(F)(F)F)cc3N3C4CCC3COC4)CC2)n1 [Example 92, N-(1-(4-(2-(3-Oxa-8-azabicyclo[3.2.1]octan-8-yl)-4-(trifluoromethyl)phenoxy)piperidine-1-carbonyl)-1H-pyrazol-3-yl)methanesulfonamide] | 0 to 25% |  | 0 to 25% | > 75% | > 75% | 
